# Experimental data reported in article PMC8300937, “New azolyl-derivatives as multitargeting agents against breast cancer and fungal infections: synthesis, biological evaluation and docking study” (Journal of Enzyme Inhibition and Medicinal Chemistry, 2021).
# Where two headings read alike, the source gives them in different places.
# Tests used:
# [1] = tested on: MCF-7 breast cancer cell line; test: Cell metabolic activity (MTT assay); type: cell-based; details: Homo sapiens, MCF7; MCF-7, 24 h exposure; read-out: IC50 cell metabolic activity (MTT)
# Protocol: (§1) Human breast cancer MCF-7 (HTB-22™) cells were purchased from ATCC® and maintained in Dulbecco’s Modified Eagle Medium (DMEM) high glucose supplemented with 10% of foetal bovine serum (FBS) and 1% of penicillin/streptomycin (all from Gibco-Thermofisher Scientific, MD, USA) at 37 °C and 5% CO2.
# Cell metabolic activity of MCF-7 human breast cancer cells was assessed by MTT (3–(4,5-dimethylthiazol-2-yl)-2,5-diphenyltetrazolium bromide) test (Sigma Aldrich, Milan, Italy). Cells were seeded (0.1 × 10^4/well) in a 96-well tissue culture-treated plate (Falcon®, Corning Incorporated, NY, USA) and let them adhere for 24 h. Next, the cell monolayer was incubated in the presence of loading concentrations of compounds 2, 5 and 6 (0–400 µM) diluted in DMSO (final concentration 0.2%) for 24, 48 and 72 h. After the exposure time, cells were incubated with 100 μL/well of MTT (5 mg/mL) 1:10 with fresh growth medium (final concentration 0.5 mg/mL) for 4 h at 37 °C and 5% CO2. Finally, the MTT solution was removed and replaced with 100 µL/well of DMSO. Cells were incubated for an additional 20 min at 37 °C and 5% CO2 and afterward gently swirled for 10 min at room temperature. The optical density was measured at 540 nm by means of a spectrophotometer (Multiskan GO, Thermo Scientific, Monza, Italy). Results were expressed as the percentage of cells in the presence of vehicle (DMSO) set as 100% and each experiment was performed in triplicate (n = 3). Concentration-response curves and IC50 were fitted and calculated with the GraphPad Prism 5.0 (GraphPad Software, San Diego, CA, USA)[27].
# aromatase (CYP19A) = target: T1, aromatase (CYP19A) (Homo sapiens, UniProt P11511); test: Aromatase inhibition, fluorimetric assay kit (Aromatase-CYP19A Inhibitor Screening kit, BioVision); type: biochemical; details: read-out: Aromatase % inhibition
# T1 construct: purchased BioVision
# T1 sequence (P11511 1-503): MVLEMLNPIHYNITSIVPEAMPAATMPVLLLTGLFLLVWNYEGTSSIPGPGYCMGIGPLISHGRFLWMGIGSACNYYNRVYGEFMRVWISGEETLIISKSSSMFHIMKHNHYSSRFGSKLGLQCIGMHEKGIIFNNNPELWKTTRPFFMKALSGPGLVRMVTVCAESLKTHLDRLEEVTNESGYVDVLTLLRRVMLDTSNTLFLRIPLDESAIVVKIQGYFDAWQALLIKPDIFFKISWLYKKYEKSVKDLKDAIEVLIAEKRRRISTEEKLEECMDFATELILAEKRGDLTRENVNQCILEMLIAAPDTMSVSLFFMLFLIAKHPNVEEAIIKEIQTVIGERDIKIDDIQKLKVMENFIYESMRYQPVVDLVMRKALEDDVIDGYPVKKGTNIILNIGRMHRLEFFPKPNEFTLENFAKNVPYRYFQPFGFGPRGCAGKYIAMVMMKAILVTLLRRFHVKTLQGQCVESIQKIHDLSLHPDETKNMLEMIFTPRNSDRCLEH
# Protocol: The aromatase inhibitory activity of the novel compounds was determined using a commercial fluorimetric kit (Aromatase CYP19A Inhibitor Screening kit, BioVision, Milpitas, CA, USA). The assay utilises a fluorogenic aromatase substrate, that is converted into a highly fluorescent metabolite detected in the visible range (Ex/Em = 488/527 nm), ensuring a high signal-to-background ratio with little interference by autofluorescence.
# [2] = tested on: C. glabrata clinical isolates; test: Antifungal broth microdilution (EUCAST), C. glabrata clinical isolates; type: cell-based, Candida glabrata
# Protocol: (§2) The antifungal activity of the most representative compounds was evaluated versus one ATCC 90028 strain and 15 clinical isolates belonging to the most clinically relevant Candida spp. (C. albicans, C. tropicalis, and C. glabrata). All strains were stored at −80 °C in Sabouraud Broth (Oxoid LTD, Basingstoke, Hampshire, England) with 20% of glycerine until their use. The strains were grown on Sabouraud CAF agar (Thermo Fisher Scientific Waltham, MA, USA), and incubated for 24–48 h at 37 °C. […] The in vitro antifungal activity was determined by broth microdilution method with RPMI 1640 (Sigma-Aldrich. ST Louis, MO, USA) as recommended by EUCAST, and the E. Def 7.3, method document (http://www.eucast.org). […] Each plate included the following controls: (i) inoculum suspension (growth control), (ii) drug-free medium, (iii) medium with drug, and (iv) distilled water (used for the inoculum preparation). Fluconazole was used as a reference drug according to the EUCAST guidelines. The plates were incubated for 24 h at 37 °C, and then read with a plate reader at 530 nm. […] Three independent experiments were performed in triplicate.
# [3] = Chemical stability in aqueous media at 37 °C (HPLC); type: physicochemical
# Protocol: Compounds 2 and 5 contain an ester linkage, therefore their chemical stability was evaluated. Phosphate buffer (pH = 7.4), HCl solution (pH = 2.0), NaOH solution (pH = 9.0) were adopted as media. […] Solutions were kept at 37 °C and monitored for 24 h.
# A 0.01 M hydrochloric acid buffer (pH 2), as a non-enzymatic simulated gastric fluid (SGF), a 0.01 M phosphate buffer (pH 7.4) as non-enzymatic simulated intestinal fluid (SIF), and a 0.1 mM sodium hydroxide solution (pH 10) were used in this study. The reactions were initiated by adding 0.1 ml of compound stock solution (1 mg/mL in DMSO) to 1.9 ml aqueous buffer solution, in screw-capped vials at 37 ± 0.5 °C. Samples (5 µL) were withdrawn at appropriate intervals, i.e. after 5 min, 1 h, 2 h, 3 h, 4 h, 6 h, 8 h, and then after 24 h incubation time and analysed by HPLC.
# MCF-7 cell line = test: Cytotoxicity test (lactate dehydrogenase release); type: cell-based, human; details: MCF-7, 24 h, 10 µM (lowest concentration tested); DMSO control set as 1
# Protocol: as §1
# After 24 h, cell supernatants were collected from the MTT plate, centrifuged at 450 × g for 4 min and stored on ice. To quantify the cytotoxicity of loading concentrations of compounds 2, 5 and 6 (0–400 µM), the CytoTox 96® Non-Radioactive Cytotoxicity Assay (Promega Corporation, WI, USA) was performed. The CytoTox 96® Assay quantitatively measures lactate dehydrogenase (LDH), a stable cytosolic enzyme released upon cell lysis. The absorbance signal resulting from the conversion of a tetrazolium salt (iodonitrotetrazolium violet; INT) into a red formazan product was measured at 490 and 690 nm (background) with a spectrophotometer (Multiskan GO, Thermo Scientific, Monza, Italy). The results were normalised on MTT absorbances and expressed as fold increases on the LDH released by cultures in the presence of vehicle (DMSO) set as 1.
# [4] = tested on: C. tropicalis clinical isolates; test: Antifungal broth microdilution (EUCAST), C. tropicalis clinical isolates; type: cell-based, Candida tropicalis
# Protocol: as §2
# [5] = tested on: C. albicans clinical isolates; test: Antifungal broth microdilution (EUCAST), C. albicans clinical isolates; type: cell-based; details: Candida albicans
# Protocol: as §2
# C. albicans ATCC 90028 = test: Antifungal broth microdilution (EUCAST), standard strain; type: cell-based; details: Candida albicans, ATCC90028; C. albicans ATCC 90028; 24 h, ≥50% growth inhibition; read-out: MIC
# Protocol: as §2
# Recombinant human iNOS = target: T2, Recombinant human iNOS (Homo sapiens, UniProt P35228); test: iNOS inhibition, L-citrulline assay with fluorimetric (HPLC) detection; type: biochemical; details: read-out: iNOS % inhibition
# T2 construct: purchased Enzo Life Sciences, Inc
# Protocol: The injection volume was 5 μL.
# Recombinant human iNOS was purchased from Enzo Life Sciences, Inc. (New York, USA).
# hCYP19A1 = target: hCYP19A1; design: method as in PMID 26481362; details: cocrystallized ligand of hCYP19A1; cited from earlier work
# iNOS = target: iNOS; design: method as in PMID 26481362; details: cocrystallized ligand of iNOS; cited from earlier work
# aromatase = details: Figure 1; cited from earlier work
structure (smiles),measurement,setting,value
"O=C(OC(Cc1ccccc1)Cn1ccnc1)c1ccccc1 (stereo not drawn) [Compound 2, 1-benzyl-2-(1H-imidazol-1-yl)ethyl benzoate]",IC50,[1],> 200000 nM
same,inhibition at 1 µM,aromatase (CYP19A),77 ± 1.8%
same,MIC,[2]; C. glabrata 311/5,>64 µg/mL
same,MIC,[2]; C. glabrata 495/5,>64 µg/mL
same,MIC,"[2]; Nakaseomyces glabratus, C. glabrata 365/5, read-out: MIC",> 64 µg/mL
same,Chemical stability in acidic medium,"[3]; HCl solution pH = 2.0, 37 °C, monitored for 24 h",stable
same,Chemical stability in neutral medium,"[3]; Phosphate buffer pH = 7.4, 37 °C, monitored for 24 h",stable
same,half-life at 0.05 mg/mL,"[3]; aqueous NaOH solution, NaOH solution pH = 9.0, 37 °C, read-out: half-life of hydrolysis in basic medium",48 min
same,melting point,,68 to 69 °C
same,"LDH released, fold increase vs control",MCF-7 cell line,1.44 folds
same,MIC,[4]; C. tropicalis 295/5,64 µg/mL
same,MIC,"[4]; Candida tropicalis, C. tropicalis 74/5, read-out: MIC",64 µg/mL
same,MIC,[5]; C. albicans 78/5,16 µg/mL
same,MIC,[5]; C. albicans 231/5,16 µg/mL
same,MIC,[5]; C. albicans 308/4,64 µg/mL
same,MIC,[5]; C. albicans 510/5,16 µg/mL
same,MIC,[5]; C. albicans 688/5,32 µg/mL
same,MIC,[5]; C. albicans 712/5,32 µg/mL
same,MIC,[5]; C. albicans 887/5,16 µg/mL
same,MIC,[5]; C. albicans 943/5,16 µg/mL
same,MIC,[5]; C. albicans 1009/40,16 µg/mL
same,MIC,[5]; C. albicans SF1,16 µg/mL
same,MIC,C. albicans ATCC 90028,16 µg/mL
same,inhibition at 1 µM,Recombinant human iNOS,100 ± 2.6%
"C[C@]12CCC(=O)C=C1CC[C@@H]1[C@@H]2CC[C@]2(C)C(=O)CC[C@@H]12 [4-androstene-3,17-dione]",Ki,hCYP19A1,20 nM
CCSC(=N)N [ethylisothiourea],Ki,iNOS,5 nM
COc1ccc(S(=O)(=O)N2CCCC(Cn3ccnc3)C2)cc1Br (stereo not drawn) [Compound 3o],IC50,aromatase,6 nM
